#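 Method: 48-hour compound exposure of cells in 96-well plates, five concentrations, linear interpolation of endpoints. TGI is the concentration that stops growth completely.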
# Assays:
# Assay in all cases: NCI-60 cell line screen, 48 h
# HL-60(TB) leukemia = test system: HL-60(TB) leukemia
# OVCAR-5 ovarian = test system: OVCAR-5 ovarian
# UACC-257 melanoma = test system: UACC-257 melanoma
# MDA-MB-435 = test system: MDA-MB-435
# CAKI-1 renal = test system: CAKI-1 renal
# HS 578T breast = test system: HS 578T breast
# IGROV1 ovarian = test system: IGROV1 ovarian
# SF-295 CNS = test system: SF-295 CNS
# SK-MEL-5 melanoma = test system: SK-MEL-5 melanoma
# NCI/ADR-RES ovarian = test system: NCI/ADR-RES ovarian
# SK-MEL-2 melanoma = test system: SK-MEL-2 melanoma
# HOP-92 NSCLC = test system: HOP-92 NSCLC
# RXF 393 renal = test system: RXF 393 renal
# OVCAR-4 ovarian = test system: OVCAR-4 ovarian
# OVCAR-3 ovarian = test system: OVCAR-3 ovarian
# K-562 leukemia = test system: K-562 leukemia
# TK-10 renal = test system: TK-10 renal
# MCF7 breast = test system: MCF7 breast
# SW-620 colon = test system: SW-620 colon
# A498 renal = test system: A498 renal
# EKVX NSCLC = test system: EKVX NSCLC
# NCI-H522 lung = test system: NCI-H522 lung
# U251 CNS = test system: U251 CNS
# PC-3 prostate = test system: PC-3 prostate
# 786-0 renal = test system: 786-0 renal
# COLO 205 colon = test system: COLO 205 colon
# SF-268 CNS = test system: SF-268 CNS
# MOLT-4 leukemia = test system: MOLT-4 leukemia
# BT-549 breast = test system: BT-549 breast
# LOX IMVI melanoma = test system: LOX IMVI melanoma
# SR leukemia = test system: SR leukemia
# UO-31 renal = test system: UO-31 renal
# HCT-15 colon = test system: HCT-15 colon
# T-47D breast = test system: T-47D breast
# NCI-H226 lung = test system: NCI-H226 lung
# A549 NSCLC = test system: A549 NSCLC
# HCC-2998 colon = test system: HCC-2998 colon
# MDA-MB-231 breast = test system: MDA-MB-231 breast
# SNB-75 CNS = test system: SNB-75 CNS
# NCI-H460 lung = test system: NCI-H460 lung
# ACHN renal = test system: ACHN renal
# DU-145 prostate = test system: DU-145 prostate
# SN12C renal = test system: SN12C renal
# SK-MEL-28 melanoma = test system: SK-MEL-28 melanoma
# SNB-19 CNS = test system: SNB-19 CNS
# CCRF-CEM leukemia = test system: CCRF-CEM leukemia
# M14 melanoma = test system: M14 melanoma
# RPMI-8226 leukemia = test system: RPMI-8226 leukemia
# SF-539 CNS = test system: SF-539 CNS
# MALME-3M melanoma = test system: MALME-3M melanoma
# UACC-62 melanoma = test system: UACC-62 melanoma
# OVCAR-8 ovarian = test system: OVCAR-8 ovarian
# KM12 colon = test system: KM12 colon
# MDA-N = test system: MDA-N
# HT29 colon = test system: HT29 colon
# SK-OV-3 ovarian = test system: SK-OV-3 ovarian
# HOP-62 NSCLC = test system: HOP-62 NSCLC
# NCI-H23 lung = test system: NCI-H23 lung
# HCT-116 colon = test system: HCT-116 colon
compound,measurement,setting,value
C=C(C)[C@H]1C2=CC(C)=C(O2)[C@@H](O)[C@H](C(=C)C)CCC2=C[C@H]1OC2=O,TGI,HL-60(TB) leukemia,> 100 µM
same,TGI,OVCAR-5 ovarian,> 100 µM
same,TGI,UACC-257 melanoma,> 100 µM
same,TGI,MDA-MB-435,> 100 µM
same,TGI,CAKI-1 renal,> 100 µM
same,TGI,HS 578T breast,> 100 µM
same,TGI,IGROV1 ovarian,> 100 µM
same,TGI,SF-295 CNS,> 100 µM
same,TGI,SK-MEL-5 melanoma,> 100 µM
same,TGI,NCI/ADR-RES ovarian,> 100 µM
same,TGI,SK-MEL-2 melanoma,> 100 µM
same,TGI,HOP-92 NSCLC,> 100 µM
same,TGI,RXF 393 renal,> 100 µM
same,TGI,OVCAR-4 ovarian,> 100 µM
same,TGI,OVCAR-3 ovarian,> 100 µM
same,TGI,K-562 leukemia,> 100 µM
same,TGI,TK-10 renal,> 100 µM
same,TGI,MCF7 breast,> 100 µM
same,TGI,SW-620 colon,> 100 µM
same,TGI,A498 renal,> 100 µM
same,TGI,EKVX NSCLC,> 100 µM
same,TGI,NCI-H522 lung,> 100 µM
same,TGI,U251 CNS,> 100 µM
same,TGI,PC-3 prostate,> 100 µM
same,TGI,786-0 renal,> 100 µM
same,TGI,COLO 205 colon,> 100 µM
same,TGI,SF-268 CNS,> 100 µM
same,TGI,MOLT-4 leukemia,> 100 µM
same,TGI,BT-549 breast,> 100 µM
same,TGI,LOX IMVI melanoma,> 100 µM
same,TGI,SR leukemia,> 100 µM
same,TGI,UO-31 renal,> 100 µM
same,TGI,HCT-15 colon,> 100 µM
same,TGI,T-47D breast,> 100 µM
same,TGI,NCI-H226 lung,> 100 µM
same,TGI,A549 NSCLC,> 100 µM
same,TGI,HCC-2998 colon,> 100 µM
same,TGI,MDA-MB-231 breast,> 100 µM
same,TGI,SNB-75 CNS,> 100 µM
same,TGI,NCI-H460 lung,> 100 µM
same,TGI,ACHN renal,> 100 µM
same,TGI,DU-145 prostate,> 100 µM
same,TGI,SN12C renal,> 100 µM
same,TGI,SK-MEL-28 melanoma,> 100 µM
same,TGI,SNB-19 CNS,> 100 µM
same,TGI,CCRF-CEM leukemia,> 100 µM
same,TGI,M14 melanoma,> 100 µM
same,TGI,RPMI-8226 leukemia,> 100 µM
same,TGI,SF-539 CNS,> 100 µM
same,TGI,MALME-3M melanoma,> 100 µM
same,TGI,UACC-62 melanoma,> 100 µM
same,TGI,OVCAR-8 ovarian,> 100 µM
same,TGI,KM12 colon,> 100 µM
same,TGI,MDA-N,> 100 µM
CC(=O)O[C@H]1C(=O)[C@@]2(C)[C@H]([C@H](OC(=O)c3ccccc3)[C@]3(O)C[C@H](OC(=O)[C@H](O)[C@@H](NC(=O)c4ccccc4)c4cccc(N(C)C)c4)C(C)=C1C3(C)C)[C@]1(OC(C)=O)CO[C@@H]1C[C@@H]2O,TGI,HL-60(TB) leukemia,0.0414 µM
same,TGI,OVCAR-5 ovarian,> 15.8 µM
same,TGI,UACC-257 melanoma,> 75 µM
same,TGI,MDA-MB-435,0.0388 µM
same,TGI,CAKI-1 renal,> 75 µM
same,TGI,HS 578T breast,0.603 µM
same,TGI,IGROV1 ovarian,> 75 µM
same,TGI,SF-295 CNS,1.14 µM
same,TGI,SK-MEL-5 melanoma,11.3 µM
same,TGI,NCI/ADR-RES ovarian,> 62.5 µM
same,TGI,SK-MEL-2 melanoma,> 75 µM
same,TGI,HOP-92 NSCLC,> 75 µM
same,TGI,RXF 393 renal,1.24 µM
same,TGI,HT29 colon,> 32.9 µM
same,TGI,OVCAR-4 ovarian,> 43.6 µM
same,TGI,OVCAR-3 ovarian,0.586 µM
same,TGI,K-562 leukemia,> 75 µM
same,TGI,TK-10 renal,> 60 µM
same,TGI,MCF7 breast,> 55.2 µM
same,TGI,SW-620 colon,> 75 µM
same,TGI,SK-OV-3 ovarian,> 28.6 µM
same,TGI,A498 renal,9.02 µM
same,TGI,EKVX NSCLC,> 75 µM
same,TGI,NCI-H522 lung,3.69 µM
same,TGI,U251 CNS,> 27 µM
same,TGI,PC-3 prostate,12.4 µM
same,TGI,786-0 renal,13.3 µM
same,TGI,COLO 205 colon,0.285 µM
same,TGI,SF-268 CNS,> 75 µM
same,TGI,BT-549 breast,3.51 µM
same,TGI,LOX IMVI melanoma,> 75 µM
same,TGI,SR leukemia,9.71 µM
same,TGI,UO-31 renal,> 64.6 µM
same,TGI,HCT-15 colon,74.5 µM
same,TGI,HOP-62 NSCLC,> 18.3 µM
same,TGI,T-47D breast,30.7 µM
same,TGI,NCI-H226 lung,29 µM
same,TGI,A549 NSCLC,> 75 µM
same,TGI,NCI-H23 lung,> 75 µM
same,TGI,MDA-MB-231 breast,36.1 µM
same,TGI,SNB-75 CNS,> 36.1 µM
same,TGI,NCI-H460 lung,27.5 µM
same,TGI,ACHN renal,> 16.4 µM
same,TGI,DU-145 prostate,1.58 µM
same,TGI,SN12C renal,> 75 µM
same,TGI,HCT-116 colon,> 61.4 µM
same,TGI,SK-MEL-28 melanoma,> 75 µM
same,TGI,SNB-19 CNS,> 41.9 µM
same,TGI,RPMI-8226 leukemia,0.236 µM
same,TGI,SF-539 CNS,1.08 µM
same,TGI,MALME-3M melanoma,> 67.1 µM
same,TGI,UACC-62 melanoma,> 50.2 µM
same,TGI,OVCAR-8 ovarian,> 27.4 µM
same,TGI,KM12 colon,> 24.7 µM
same,TGI,MDA-N,0.0238 µM

# — PubChem BioAssay (NCI)
